From ChEMBL document CHEMBL4229563, “Identification of the First PPARα/γ Dual Agonist Able To Bind to Canonical and Alternative Sites of PPARγ and To Inhibit Its Cdk5-Mediated Phosphorylation” (J Med Chem, 2018)
One block for each compound: values may come before it. The source made the active and inactive calls. The calls are words filed in the database; no cut-off is given here.

Legend:
[1] = tested on: 3T3-L1; experiment: Induction of lipid accumulation in mouse 3T3L1 cells at 5 uM by Oil Red O staining-based assay; format: functional, cell-based
[2] = tested on: 3T3-L1; experiment: Induction of lipid accumulation in mouse 3T3L1 cells at 2 uM by Oil Red O staining-based assay; format: functional, cell-based
[3] = target: T1, Peroxisome proliferator-activated receptor alpha (Homo sapiens) (UniProt Q07869); experiment: Transactivation of GAL4-tagged human PPARalpha LBD expressed in human HepG2 cells after 20 hrs by luciferase reporter gene assay relative to Wy-14,643; format: cell-based
T1 sequence (whole entry): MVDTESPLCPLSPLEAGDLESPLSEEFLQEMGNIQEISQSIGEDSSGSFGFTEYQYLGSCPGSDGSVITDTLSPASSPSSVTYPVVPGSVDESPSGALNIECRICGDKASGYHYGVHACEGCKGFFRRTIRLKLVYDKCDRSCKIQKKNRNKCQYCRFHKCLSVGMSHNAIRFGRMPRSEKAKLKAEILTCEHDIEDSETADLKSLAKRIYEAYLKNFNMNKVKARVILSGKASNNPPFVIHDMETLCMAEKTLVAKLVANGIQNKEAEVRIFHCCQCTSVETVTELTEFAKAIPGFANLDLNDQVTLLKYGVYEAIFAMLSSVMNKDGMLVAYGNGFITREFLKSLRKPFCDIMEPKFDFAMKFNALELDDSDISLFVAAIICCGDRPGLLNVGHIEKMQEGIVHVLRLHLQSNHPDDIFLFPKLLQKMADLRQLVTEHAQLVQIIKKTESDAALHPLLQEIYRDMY

[4] = target: T2, Peroxisome proliferator-activated receptor gamma (Homo sapiens, UniProt P37231); experiment: Transactivation of GAL4-tagged human PPARgamma LBD expressed in human HepG2 cells after 20 hrs by luciferase reporter gene assay; format: cell-based
T2 sequence (P37231 whole entry): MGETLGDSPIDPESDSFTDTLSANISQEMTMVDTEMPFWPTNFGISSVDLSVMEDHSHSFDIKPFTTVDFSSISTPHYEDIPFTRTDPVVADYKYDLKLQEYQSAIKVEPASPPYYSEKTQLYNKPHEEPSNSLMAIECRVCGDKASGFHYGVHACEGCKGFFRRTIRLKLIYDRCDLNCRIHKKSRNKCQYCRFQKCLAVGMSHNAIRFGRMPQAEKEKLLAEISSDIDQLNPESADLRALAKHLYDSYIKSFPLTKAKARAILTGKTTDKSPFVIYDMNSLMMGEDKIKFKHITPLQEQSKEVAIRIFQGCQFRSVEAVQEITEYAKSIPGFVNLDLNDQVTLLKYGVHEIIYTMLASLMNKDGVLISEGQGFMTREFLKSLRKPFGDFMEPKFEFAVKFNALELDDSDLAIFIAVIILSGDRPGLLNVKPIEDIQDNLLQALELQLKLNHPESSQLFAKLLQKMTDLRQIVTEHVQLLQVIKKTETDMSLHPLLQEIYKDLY

[5] = target: T3, Peroxisome proliferator-activated receptor alpha (Homo sapiens, UniProt Q07869); experiment: Transactivation of GAL4-tagged human PPARalpha LBD expressed in human HepG2 cells after 20 hrs by luciferase reporter gene assay; format: cell-based
T3 sequence (Q07869 whole entry): T1 sequence (whole entry)

[6] = target: T4, Peroxisome proliferator-activated receptor alpha (Mus musculus) (UniProt P23204); experiment: Agonist activity at PPARalpha in mouse Hepa1-6 cells assessed as increase in cpt1a RNA expression at 1 to 5 uM by qRT-PCR analysis; format: cell-based
T4 sequence (whole entry): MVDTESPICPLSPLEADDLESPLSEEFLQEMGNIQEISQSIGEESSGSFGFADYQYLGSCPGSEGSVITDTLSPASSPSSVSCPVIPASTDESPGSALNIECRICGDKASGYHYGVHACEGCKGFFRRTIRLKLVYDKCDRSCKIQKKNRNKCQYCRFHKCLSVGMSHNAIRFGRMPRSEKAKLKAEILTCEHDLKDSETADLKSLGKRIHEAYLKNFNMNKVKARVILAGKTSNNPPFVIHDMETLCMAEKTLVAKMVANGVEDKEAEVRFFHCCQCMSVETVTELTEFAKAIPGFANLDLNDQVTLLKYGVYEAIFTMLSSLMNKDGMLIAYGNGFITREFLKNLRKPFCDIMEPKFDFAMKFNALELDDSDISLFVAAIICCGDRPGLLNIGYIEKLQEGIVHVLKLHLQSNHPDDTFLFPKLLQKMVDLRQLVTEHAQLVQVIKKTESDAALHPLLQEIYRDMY

[7] = target: T5, Peroxisome proliferator-activated receptor gamma (Mus musculus) (UniProt P37238); experiment: Agonist activity at PPARgamma in mouse 3T3-L1 cells assessed as increase in glut4 RNA expression at 5 to 10 uM by qRT-PCR analysis; format: cell-based
T5 sequence (whole entry): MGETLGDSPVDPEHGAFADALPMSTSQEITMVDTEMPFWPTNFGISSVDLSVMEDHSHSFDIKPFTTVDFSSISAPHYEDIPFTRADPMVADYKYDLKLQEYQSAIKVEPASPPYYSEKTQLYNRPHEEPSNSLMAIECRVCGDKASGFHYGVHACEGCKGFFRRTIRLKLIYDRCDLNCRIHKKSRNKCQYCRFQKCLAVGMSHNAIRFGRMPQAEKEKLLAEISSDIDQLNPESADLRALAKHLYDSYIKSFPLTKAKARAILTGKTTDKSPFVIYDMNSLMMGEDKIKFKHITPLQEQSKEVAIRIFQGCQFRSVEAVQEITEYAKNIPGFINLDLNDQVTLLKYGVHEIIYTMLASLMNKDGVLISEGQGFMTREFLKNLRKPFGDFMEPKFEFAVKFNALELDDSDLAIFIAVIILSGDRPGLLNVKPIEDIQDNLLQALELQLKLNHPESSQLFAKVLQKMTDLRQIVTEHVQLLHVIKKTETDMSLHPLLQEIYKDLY

[8] = target: T5, Peroxisome proliferator-activated receptor gamma (Mus musculus); experiment: Agonist activity at PPARgamma in mouse 3T3-L1 cells assessed as increase in fabp4 RNA expression at 0.1 to 2.5 uM by qRT-PCR analysis; format: cell-based
[9] = target: T5, Peroxisome proliferator-activated receptor gamma (Mus musculus); experiment: Agonist activity at PPARgamma in mouse 3T3-L1 cells assessed as increase in adipoq RNA expression at 5 to 10 uM by qRT-PCR analysis; format: cell-based
[10] = target: T4, Peroxisome proliferator-activated receptor alpha (Mus musculus); experiment: Agonist activity at PPARalpha in mouse Hepa1-6 cells assessed as increase in Acox1 RNA expression at 1 to 5 uM by qRT-PCR analysis; format: cell-based
[11] = target: T5, Peroxisome proliferator-activated receptor gamma (Mus musculus); experiment: Agonist activity at PPARgamma in mouse 3T3-L1 cells assessed as increase in Suclg1 RNA expression at 0.1 to 2.5 uM by qRT-PCR analysis; format: cell-based
[12] = target: T5, Peroxisome proliferator-activated receptor gamma (Mus musculus); experiment: Agonist activity at PPARgamma in mouse 3T3-L1 cells assessed as increase in CD36 RNA expression at 0.1 to 2.5 uM by qRT-PCR analysis; format: cell-based
[13] = tested on: 3T3-L1; experiment: Induction of lipid accumulation in mouse 3T3L1 cells at 0.1 to 2.5 uM by Oil Red O staining-based assay; format: functional, cell-based
[14] = target: T5, Peroxisome proliferator-activated receptor gamma (Mus musculus); experiment: Agonist activity at PPARgamma in mouse 3T3-L1 cells assessed as increase in adipoq RNA expression at 0.1 to 2.5 uM by qRT-PCR analysis; format: cell-based
[15] = target: T5, Peroxisome proliferator-activated receptor gamma (Mus musculus); experiment: Agonist activity at PPARgamma in mouse 3T3-L1 cells assessed as increase in fabp4 RNA expression at 5 to 10 uM by qRT-PCR analysis; format: cell-based
[16] = target: T5, Peroxisome proliferator-activated receptor gamma (Mus musculus); experiment: Agonist activity at PPARgamma in mouse 3T3-L1 cells assessed as increase in Idh3a RNA expression at 0.1 to 2.5 uM by qRT-PCR analysis; format: cell-based
[17] = target: T4, Peroxisome proliferator-activated receptor alpha (Mus musculus); experiment: Agonist activity at PPARalpha in mouse Hepa1-6 cells assessed as increase in acadm RNA expression at 1 to 5 uM by qRT-PCR analysis; format: cell-based
[18] = target: T2, Peroxisome proliferator-activated receptor gamma; experiment: Synergistic agonist activity at human PPARgamma LBD assessed as biotin-labeled PGC1alpha (130 to 154 residues) co-activator recruitment after 1 hr in presence of 10 uM rosiglitazone by TR-FRET assay
[19] = target: T5, Peroxisome proliferator-activated receptor gamma (Mus musculus); experiment: Agonist activity at PPARgamma in mouse 3T3-L1 cells accessed as increase in 2-deoxy-D-glucose uptake at 10 uM treated 17 hrs prior to insulin stimulation; format: cell-based
[20] = target: T5, Peroxisome proliferator-activated receptor gamma (Mus musculus); experiment: Agonist activity at PPARgamma in mouse 3T3-L1 cells assessed as increase in pck1 RNA expression at 5 to 10 uM by qRT-PCR analysis; format: cell-based
[21] = target: T6, Peroxisome proliferator-activated receptor gamma (Homo sapiens) (UniProt P37231); experiment: Transactivation of GAL4-tagged human PPARgamma LBD expressed in human HepG2 cells at 10^-9 to 10^-5 M after 20 hrs in presence of 5 uM PPARgamma antagonist GW9662 by luciferase reporter gene assay; format: cell-based
T6 sequence (whole entry): T2 sequence (P37231 whole entry)

[22] = target: T5, Peroxisome proliferator-activated receptor gamma (Mus musculus); experiment: Synergistic agonist activity at PPARgamma in mouse 3T3-L1 cells accessed as increase in 2-deoxy-D-glucose uptake at 10 uM in presence of 0.3 uM rosiglitazone dosed 17 hrs prior to insulin stimulation
[23] = target: T6, Peroxisome proliferator-activated receptor gamma (Homo sapiens); experiment: Binding affinity wild type apo form of PPARgamma (unknown origin) assessed as inhibition of CDK5/p35-mediated PPARgamma phosphorylation at ser273 at 0.1 to 10 uM after 3.5 hrs by ELISA relative to rosiglitazone
[24] = target: T5, Peroxisome proliferator-activated receptor gamma (Mus musculus); experiment: Agonist activity at PPARgamma in mouse 3T3-L1 cells assessed as increase in pck1 RNA expression at 0.1 to 2.5 uM by qRT-PCR analysis; format: cell-based
[25] = target: T5, Peroxisome proliferator-activated receptor gamma (Mus musculus); experiment: Agonist activity at PPARgamma in mouse 3T3-L1 cells assessed as increase in glut4 RNA expression at 0.1 to 2.5 uM by qRT-PCR analysis; format: cell-based
[26] = tested on: 3T3-L1; experiment: Induction of cells lipid accumulation in mouse 3T3L1 cells at 10 uM by Oil Red O staining-based assay; format: functional, cell-based
[27] = target: T6, Peroxisome proliferator-activated receptor gamma (Homo sapiens); experiment: Agonist activity at human PPARgamma LBD assessed as induction of recruitment of biotin-labeled PGC1alpha (130 to 154 residues) co-activator at >1 uM after 1 hr by TR-FRET assay
[28] = target: T2, Peroxisome proliferator-activated receptor gamma; experiment: Synergistic agonist activity at human PPARgamma LBD assessed as biotin-labeled PGC1alpha (130 to 154 residues) co-activator recruitment after 1 hr in presence of 1 uM rosiglitazone by TR-FRET assay
[29] = target: T5, Peroxisome proliferator-activated receptor gamma (Mus musculus); experiment: Agonist activity at PPARgamma in mouse 3T3-L1 cells assessed as increase in Gk RNA expression at 0.1 to 2.5 uM by qRT-PCR analysis; format: cell-based
[30] = target: T2, Peroxisome proliferator-activated receptor gamma; experiment: Synergistic agonist activity at human PPARgamma LBD assessed as biotin-labeled PGC1alpha (130 to 154 residues) co-activator recruitment after 1 hr in presence of 0.37 uM rosiglitazone by TR-FRET assay

SMILES: CN(CCOc1ccc(CC2SC(=O)NC2=O)cc1)c1ccccn1 (stereo unspecified)
- Activity [1]: Active
- Activity [2]: Active

SMILES: O=C(O)[C@H](Cc1ccccc1)Oc1ccc(-c2ccc(C[C@@H](Oc3ccc(-c4ccccc4)cc3)C(=O)O)cc2)cc1
- EC50 [4]: 25 µM
- EC50 ([5]; read-out: EC50): 9.5 µM

SMILES: O=C(O)[C@H](Cc1ccc(-c2ccc(O[C@H](Cc3ccccc3)C(=O)O)cc2)cc1)Oc1ccc(-c2ccccc2)cc1
- EC50 [4]: 18 µM
- EC50 ([5]; read-out: EC50): 27 µM

SMILES: O=C(O)[C@@H](Cc1ccc(-c2ccc(O[C@H](Cc3ccccc3)C(=O)O)cc2)cc1)Oc1ccc(-c2ccccc2)cc1
- EC50 [4]: 15 µM
- EC50 ([5]; hepg2): Not Active

Further lines, with some results ahead:

- Emax [3]: 25%
- EC50 [4]: 0.89 µM
- EC50 ([5]; read-out: EC50): 2.6 µM
SMILES: O=C(O)[C@@H](Cc1ccc(-c2ccccc2)cc1)Oc1ccc(-c2ccccc2)cc1

- Activity [6]: Active
- Activity [7]: inactive
- Activity [8]: inactive
- Emax [3]: 68%
- Activity [9]: inactive
- Activity [10]: Active
- Activity [11]: inactive
- Activity [12]: inactive
- Activity [14]: inactive
- Activity [15]: inactive
- Activity [16]: inactive
- Activity [17]: Active
- EC50 [18]: 9.78 µM
- Activity [19]: Active
- Activity [20]: inactive
- Activity [21]: Active
- Activity [22]: Active
- Activity [23]: Active
- Activity [24]: inactive
- Activity [25]: inactive
- EC50 [4]: 0.12 µM
- EC50 ([5]; read-out: EC50): 1.05 µM
- Activity [27]: Active
- EC50 [28]: 2.85 µM
- Activity [29]: inactive
- EC50 [30]: 3.69 µM
SMILES: O=C(O)[C@H](Cc1ccc(-c2ccccc2)cc1)Oc1ccc(-c2ccccc2)cc1
- Activity [13]: inactive
- Activity [26]: inactive

- EC50 [4]: 9.8 µM
- EC50 ([5]; read-out: EC50): 5.9 µM
SMILES: O=C(O)[C@H](Cc1ccc(-c2ccc(O[C@@H](Cc3ccccc3)C(=O)O)cc2)cc1)Oc1ccc(-c2ccccc2)cc1
